Measured values reported in patent US20220144812A1, “QUINOLINE DERIVATIVES AND THEIR USE FOR THE TREATMENT OF CANCER” (Epizyme, Inc., priority 2019, published 2022).
Read-outs that look alike come from different tables or passages of the source.

Columns and labels:
[1] = tested on: H3K18Ac in HB-CLS-2 cells; assay: H3K18AC in-cell western (ICW) assay; format: cell-based; conditions: H3K18Ac in-cell western; read-out: CREBBP ICW IC50
In short: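 In-cell western: after methanol fixation, blocking, overnight 4° C anti-H3K18Ac staining, then 800CW secondary plus DRAQ5 for DNA content, integrated intensities were scanned at 800 and 700 nm. Before this, compound exposure lasted 2 hr at 37° C in HB-CLS-2 cells plated 16–24 hours earlier. Values expressed as IC50 (μM).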

647V cells = assay: High throughput proliferation (HTP) assay; format: cell-based; conditions: high throughput proliferation, read-out: CREBBP HTP IC50
In short: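 Proliferation IC50 (micromolar) derived from a 7-day CellTiter-Glo viable-cell readout in 647V cells exposed, in triplicate, to rising compound concentrations; cells grown in DMEM plus 15% heat-inactivated FBS at 37° C under 5% CO2.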

CREBBP (1084-1701) = molecular target: T1, CREBBP (1084-1701) (Homo sapiens, UniProt Q92793); assay: Biochemical assay for CREBBP (1084-1701), SAMDI; conditions: SAMDI, read-out: CREBBP Biochemistry IC50
T1 construct: measured in the following biochemical assay using CREBBP (1084-1701); purchased
In short: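 Acetyltransferase activity measured by SAMDI mass spectrometry after capture on biochip. Enzyme sat with compound 30 min at RT before acetyl-CoA and biotinylated H3 11-25 (K14R, K23R) peptide were added for 30 min at RT. Formic acid quench, bicarbonate neutralisation; IC50 values reported.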

EP300 (P300(1048-1664)) = molecular target: T2, EP300 (P300(1048-1664)) (Homo sapiens, UniProt Q09472); assay: Biochemical assay for EP300, SAMDI; conditions: EP300, SAMDI; read-out: EP300 Biochemistry IC50
T2 construct: P300(1048-1664)
T2 sequence (Q09472 1048-1664): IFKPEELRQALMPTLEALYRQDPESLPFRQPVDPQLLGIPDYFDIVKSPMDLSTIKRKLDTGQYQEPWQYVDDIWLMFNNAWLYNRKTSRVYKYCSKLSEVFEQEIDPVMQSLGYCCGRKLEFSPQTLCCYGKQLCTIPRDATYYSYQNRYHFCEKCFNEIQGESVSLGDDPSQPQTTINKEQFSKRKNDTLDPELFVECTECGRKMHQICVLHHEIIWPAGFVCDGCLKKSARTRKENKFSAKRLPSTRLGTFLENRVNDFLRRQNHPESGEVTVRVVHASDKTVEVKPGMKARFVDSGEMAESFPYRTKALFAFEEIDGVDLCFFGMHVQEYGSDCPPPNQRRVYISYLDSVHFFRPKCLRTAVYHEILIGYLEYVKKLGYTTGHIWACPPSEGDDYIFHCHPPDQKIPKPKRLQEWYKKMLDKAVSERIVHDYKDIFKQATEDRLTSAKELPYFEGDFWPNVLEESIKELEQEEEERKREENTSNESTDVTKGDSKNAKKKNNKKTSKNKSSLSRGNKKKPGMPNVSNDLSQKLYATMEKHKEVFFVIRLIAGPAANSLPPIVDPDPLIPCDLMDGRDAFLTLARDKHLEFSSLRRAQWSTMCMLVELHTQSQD
Text: The following example describes materials and methods relating to a biochemical assay for EP300. IC50 values (micromolar (μM)) are summarized in Table 1, Table 2, and Table 3 under the column labeled: “EP300 Biochemistry IC50 (micromolar).”

T1 sequence (Q92793 1084-1701): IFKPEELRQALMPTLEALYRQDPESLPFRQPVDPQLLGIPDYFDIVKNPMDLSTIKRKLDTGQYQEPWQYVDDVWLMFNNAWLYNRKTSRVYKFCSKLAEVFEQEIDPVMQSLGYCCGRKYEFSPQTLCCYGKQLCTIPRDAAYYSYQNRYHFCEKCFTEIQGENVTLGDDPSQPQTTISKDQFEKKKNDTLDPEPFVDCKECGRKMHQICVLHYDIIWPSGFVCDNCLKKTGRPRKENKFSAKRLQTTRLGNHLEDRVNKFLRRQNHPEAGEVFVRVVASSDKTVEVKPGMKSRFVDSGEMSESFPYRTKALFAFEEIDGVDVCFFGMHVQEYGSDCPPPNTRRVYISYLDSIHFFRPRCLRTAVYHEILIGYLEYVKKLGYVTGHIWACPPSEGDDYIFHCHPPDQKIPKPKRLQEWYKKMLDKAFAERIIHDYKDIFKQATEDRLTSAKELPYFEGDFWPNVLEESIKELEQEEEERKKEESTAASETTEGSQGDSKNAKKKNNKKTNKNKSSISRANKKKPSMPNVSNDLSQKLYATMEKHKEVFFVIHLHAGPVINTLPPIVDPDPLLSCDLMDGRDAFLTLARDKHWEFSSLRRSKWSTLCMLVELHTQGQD

SMILES | IC50 [1] | IC50 (647V cells; Homo sapiens, 647-V) | IC50 (CREBBP (1084-1701)) | IC50 (EP300 (P300(1048-1664))) | IC50 (647V cells)
CCn1ncc(CN(C)C(=O)c2nc(-c3cnc[nH]3)nc3ccc(Cl)cc23)c1C [Compound 109] | 2.5 µM | 3.5 µM | 3.9 µM | 1.4 µM | 
CCn1ncc(CN(C)C(=O)c2nc(-c3ccc(OCCCNC)cc3)nc3ccc(Cl)cc23)c1C [Compound 110] | 2.6 µM | 1.4 µM | 3.2 µM | 4.4 µM | 
CCn1ncc(CN(C)C(=O)c2nc(-c3ccc(OCCO)c(F)c3)nc3ccc(Cl)cc23)c1C [Compound 111] | 2.6 µM | 2.4 µM | 6.4 µM | 4.7 µM | 
CCn1ncc(CN(C)C(=O)c2nc(-c3ccc(NCCNC)cn3)nc3ccc(Cl)cc23)c1C [Compound 112] | 2.7 µM | 2.1 µM | 1.3 µM | 0.73 µM | 
CCn1ncc(CN(C)C(=O)c2cc(-c3ccc(NCCN(C)C(=O)OC(C)(C)C)cn3)nc3ccc(Cl)cc23)c1C [Compound 113] | 2.8 µM | 6.7 µM | 4.8 µM | 1.5 µM | 
CCn1ncc(CN(C)C(=O)c2nc(-c3ccc(OCCN(C)S(C)(=O)=O)c(OC)c3)nc3ccc(Cl)cc23)c1C [Compound 114] | 2.8 µM | 2.8 µM | 5.2 µM | 4.3 µM | 
CCn1ncc(CN(C)C(=O)c2nc(-c3cc(Cl)cc(NCCCN(C)C(=O)OC(C)(C)C)c3)nc3ccc(Cl)cc23)c1C [Compound 115] | 2.8 µM | 4.4 µM | 0.16 µM | 0.11 µM | 
CCn1ncc(CN(C)C(=O)c2nc(-c3cc(CNC)ccc3C)nc3ccc(Cl)cc23)c1C [Compound 116] | 2.9 µM | 1.9 µM | 3.4 µM | 6.9 µM | 
CCn1ncc(CN(C)C(=O)c2nc(-c3ccc(OCCNC(=O)OC(C)(C)C)c(Cl)c3)nc3ccc(Cl)cc23)c1C [Compound 117] | 3 µM | 2.4 µM | 0.27 µM | 4.3 µM | 
CCn1ncc(CN(C)C(=O)c2cc(-c3cn(C)cn3)nc3ccc(Cl)cc23)c1C [Compound 119] | 3.3 µM | 0.69 µM | 4.5 µM | 1.3 µM | 
CCn1ncc(CN(C)C(=O)c2nc(-c3cc(Cl)cc(NCCN(C)C(=O)OC(C)(C)C)c3)nc3ccc(Cl)cc23)c1C [Compound 121] | 3.5 µM | 3.8 µM | 0.41 µM | 0.86 µM | 
CCn1ncc(CN(C)C(=O)c2cc(-c3ccc(OCC(=O)NC)c(OC)c3)nc3ccc(Cl)cc23)c1C [Compound 122] | 3.6 µM | 2.1 µM | 4.5 µM | 4.3 µM | 
CCn1ncc(CN(C)C(=O)c2nc(-c3cc(Cl)cc(CN4CCNCC4)c3)nc3ccc(Cl)cc23)c1C [Compound 124] | 3.9 µM | 4.1 µM | 0.37 µM | 1.4 µM | 
CCn1ncc(CN(C)C(=O)c2nc(-c3cn[nH]c3)nc3ccc(Cl)cc23)c1C [Compound 125] | 4 µM | 4.1 µM | 6.3 µM | 3.5 µM | 
CCn1ncc(CN(C)C(=O)c2nc(-c3ccc(OCCCNC(=O)OC(C)(C)C)c(OC)c3)nc3ccc(Cl)cc23)c1C [Compound 127] | 4.4 µM | 3.5 µM | 12 µM | 15 µM | 
CCn1ncc(CN(C)C(=O)c2nc(-c3cc(Cl)cc(OCCCNC)c3)nc3ccc(Cl)cc23)c1C [Compound 128] | 4.5 µM | 1.9 µM | 0.35 µM | 0.8 µM | 
CCn1ncc(CN(C)C(=O)c2cc(-n3cc(C)cn3)nc3ccc(Cl)cc23)c1C [Compound 129] | 4.6 µM | 8.3 µM | 7.4 µM | 1.4 µM | 
CCn1ncc(CN(C)C(=O)c2nc(-c3cccc(N)n3)nc3ccc(Cl)cc23)c1C [Compound 131] | 4.7 µM | 7.5 µM | 5.5 µM | 2.6 µM | 

SMILES | IC50 [1] | IC50 (647V cells; Homo sapiens, 647-V) | IC50 (CREBBP (1084-1701)) | IC50 (EP300 (P300(1048-1664))) | IC50 (647V cells)
CCn1ncc(CN(C)C(=O)c2nc(-c3ccc4[nH]nnc4c3)nc3ccc(Cl)cc23)c1C [Compound 133] | 4.9 µM | 5.9 µM | 0.1 µM | 0.47 µM | 
CCn1ncc(CN(C)C(=O)c2nc(-c3ccnc(NC(C)=O)c3)nc3ccc(Cl)cc23)c1C [Compound 135] | 5.1 µM | 6.7 µM | 7.5 µM | 7.1 µM | 
CCn1ncc(CN(C)C(=O)c2nc(-c3ccc(OCCC(=O)NC)c(OC)c3)nc3ccc(Cl)cc23)c1C [Compound 137] | 5.3 µM | 4.7 µM | 8.3 µM | 7.8 µM | 
CCn1ncc(CN(C)C(=O)c2cc(-c3csc(CNC)n3)nc3ccc(Cl)cc23)c1C [Compound 138] | 5.9 µM |  | 12 µM | 5.2 µM | 8.3 µM
CCn1ncc(CN(C)C(=O)c2nc(-c3ccc(CN4CCNCC4)c(OC)c3)nc3ccc(Cl)cc23)c1C [Compound 139] | 5.9 µM |  | 6.8 µM | 7.4 µM | 7.5 µM
CCn1ncc(CN(C)C(=O)c2nc(-c3ccc(OCCNC(=O)OC(C)(C)C)c(C)c3)nc3ccc(Cl)cc23)c1C [Compound 143] | 6.4 µM |  | 0.13 µM | 8.1 µM | 4.3 µM
CCn1ncc(CN(C)C(=O)c2nc(-c3cn(CCNC)nc3C)nc3ccc(Cl)cc23)c1C [Compound 144] | 8.4 µM | 3.3 µM | 5.4 µM | 8.9 µM | 
CCn1ncc(CN(C)C(=O)c2nc(-c3cccc(-c4ccn[nH]4)c3)nc3ccc(Cl)cc23)c1C [Compound 145] | 6.5 µM |  | 2.8 µM | 1.9 µM | 9.9 µM
CCn1ncc(CN(C)C(=O)c2cc(-c3cnc(CN(C)C)[nH]3)nc3ccc(Cl)cc23)c1C [Compound 146] | 6.5 µM | 10 µM | 4 µM | 2.3 µM | 
CCn1ncc(CN(C)C(=O)c2nc(-c3ccc(OCCCNC(=O)OC(C)(C)C)c(C)c3)nc3ccc(Cl)cc23)c1C [Compound 147] | 7 µM |  | 0.47 µM | 7.9 µM | 3.1 µM
CCn1ncc(CN(C)C(=O)c2nc(-c3ccc(OCCN(C)C(=O)OC(C)(C)C)c(OC)c3)nc3ccc(Cl)cc23)c1C [Compound 148] | 7.2 µM | 3.9 µM | 7.5 µM | 11 µM | 
CCn1ncc(CN(C)C(=O)c2cc(-c3cnc(CNC)[nH]3)nc3ccc(Cl)cc23)c1C [Compound 149] | 7.8 µM | 9.2 µM | 14 µM | 6.7 µM | 
CCn1ncc(CN(C)C(=O)c2nc(-c3ccc(OCCN(C)C(=O)OC(C)(C)C)c(Cl)c3)nc3ccc(Cl)cc23)c1C [Compound 151] | 8.8 µM | 3.2 µM | 2.2 µM | 2.8 µM | 
CCn1ncc(CN(C)C(=O)c2nc(-c3ccc(OCCNC)c(Cl)c3)nc3ccc(OC)cc23)c1C [Compound 152] | 8.9 µM | 1.6 µM | 3.6 µM | 3.6 µM | 
CCn1ncc(CN(C)C(=O)c2nc(-c3ccc(NC4CCNCC4)cn3)nc3ccc(Cl)cc23)c1C [Compound 153] | 9 µM |  | 0.39 µM | 0.35 µM | 4.9 µM
CCn1ncc(CN(C)C(=O)c2nc(-c3ccnc(NC)c3)nc3ccc(Cl)cc23)c1C [Compound 155] | 9.3 µM | 5 µM | 35 µM | 26 µM | 
CCn1ncc(CN(C)C(=O)c2nc(-c3ccc(C(=O)NC)cc3)nc3ccc(Cl)cc23)c1C [Compound 156] | 9.6 µM | 9.6 µM | 34 µM | 13 µM | 
CCCOc1ccc(-c2nc(C(=O)N(C)Cc3cnn(CC)c3C)c3cc(Cl)ccc3n2)cc1Cl [Compound 157] | 9.6 µM |  | 3.2 µM | 2.8 µM | 5.6 µM
